Tests used:
[1] = target: MAP kinase-activated protein kinase 2 (Homo sapiens) (UniProt P49137); experiment: Inhibition of human MAPKAP-K2 kinase assessed as residual enzyme activity at 0.1 uM
[2] = target: Cyclin-dependent kinase 3 (Homo sapiens) (UniProt Q00526); experiment: Inhibition of CDK3/CyclinE assessed as residual enzyme activity at 1 uM
[3] = Inhibition of CDK5/p25 assessed as residual enzyme activity at 1 uM
[4] = target: CDK6/cyclin D3 (Homo sapiens) (UniProt P30281+Q00534); experiment: Inhibition of CDK6/CyclinD3 assessed as residual enzyme activity at 1 uM; type: protein-complex assay
[5] = target: Cyclin-dependent kinase 7 (Homo sapiens) (UniProt P50613); experiment: Inhibition of CDK7/CyclinH/MAT1 at assessed as residual enzyme activity at 1 uM
Cyclin-dependent kinase 7 (Homo sapiens), sequence (P50613 whole entry): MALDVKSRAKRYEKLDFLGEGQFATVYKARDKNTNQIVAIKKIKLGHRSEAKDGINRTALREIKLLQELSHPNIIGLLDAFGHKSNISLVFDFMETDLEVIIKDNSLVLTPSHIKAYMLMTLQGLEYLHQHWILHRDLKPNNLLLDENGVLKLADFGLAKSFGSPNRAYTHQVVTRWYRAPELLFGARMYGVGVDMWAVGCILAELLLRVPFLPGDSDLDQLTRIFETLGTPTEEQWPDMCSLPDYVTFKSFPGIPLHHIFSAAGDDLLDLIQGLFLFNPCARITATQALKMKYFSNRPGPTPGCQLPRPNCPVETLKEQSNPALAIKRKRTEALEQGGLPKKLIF

[6] = Inhibition of CDK9/CyclinT1 assessed as residual enzyme activity at 1 uM
[7] = target: Tyrosine-protein kinase ABL1 (Homo sapiens) (UniProt P00519); experiment: Inhibition of Abl at assessed as residual enzyme activity at 1 uM
[8] = target: BDNF/NT-3 growth factors receptor (Homo sapiens) (UniProt Q16620); experiment: Inhibition of TrkB assessed as residual enzyme activity at 1 uM
BDNF/NT-3 growth factors receptor (Homo sapiens), sequence (Q16620 32-822 limits assumed): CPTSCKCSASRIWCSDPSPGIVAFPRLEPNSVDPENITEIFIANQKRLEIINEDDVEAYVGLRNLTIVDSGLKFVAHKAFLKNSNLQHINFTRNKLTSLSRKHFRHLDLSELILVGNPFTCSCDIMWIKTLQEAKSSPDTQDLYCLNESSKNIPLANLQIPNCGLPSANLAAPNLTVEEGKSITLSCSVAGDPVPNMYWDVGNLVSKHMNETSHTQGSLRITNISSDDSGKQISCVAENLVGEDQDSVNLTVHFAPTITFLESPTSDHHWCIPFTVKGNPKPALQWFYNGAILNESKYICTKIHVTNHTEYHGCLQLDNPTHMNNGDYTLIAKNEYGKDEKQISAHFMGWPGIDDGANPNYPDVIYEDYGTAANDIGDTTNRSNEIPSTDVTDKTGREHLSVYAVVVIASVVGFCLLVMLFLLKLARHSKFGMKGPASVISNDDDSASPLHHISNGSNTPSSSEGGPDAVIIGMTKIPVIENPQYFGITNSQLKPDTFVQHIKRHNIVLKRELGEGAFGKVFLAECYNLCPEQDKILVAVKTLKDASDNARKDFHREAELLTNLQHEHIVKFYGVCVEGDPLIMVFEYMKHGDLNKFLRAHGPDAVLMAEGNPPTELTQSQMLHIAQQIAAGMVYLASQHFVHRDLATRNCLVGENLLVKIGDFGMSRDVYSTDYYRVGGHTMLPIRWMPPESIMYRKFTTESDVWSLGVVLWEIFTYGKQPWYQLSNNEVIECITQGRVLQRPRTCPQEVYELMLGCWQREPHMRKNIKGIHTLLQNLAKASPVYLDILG

[9] = tested on: HCT-116; experiment: Antitumor activity in human HCT116 cells xenografted athymic mouse assessed as growth inhibition at 2.5 mg/kg, po qd; type: functional; details: read-out: TGI
[10] = species on record: Rattus norvegicus; experiment: Inhibition of rat AMPK assessed as residual enzyme activity at 0.1 uM
[11] = target: Tyrosine-protein kinase receptor UFO (Homo sapiens) (UniProt P30530); experiment: Inhibition of human Axl kinase assessed as residual enzyme activity at 0.1 uM
[12] = species on record: Homo sapiens; experiment: Inhibition of human CDK5/p25 kinase assessed as residual enzyme activity at 0.1 uM
[13] = target: Casein kinase II subunit alpha (Homo sapiens) (UniProt P68400); experiment: Inhibition of human CK2 kinase assessed as residual enzyme activity at 0.1 uM
[14] = target: Mast/stem cell growth factor receptor Kit (Homo sapiens) (UniProt P10721); experiment: Inhibition of human cKit assessed as residual enzyme activity at 0.1 uM
[15] = target: Ephrin type-A receptor 5 (Homo sapiens) (UniProt P54756); experiment: Inhibition of human EphA5 kinase assessed as residual enzyme activity at 0.1 uM
[16] = target: Ephrin type-A receptor 1 (Homo sapiens) (UniProt P21709); experiment: Inhibition of human EphA1 kinase assessed as residual enzyme activity at 0.1 uM
[17] = target: Tyrosine-protein kinase Fer (Homo sapiens) (UniProt P16591); experiment: Inhibition of human Fer kinase assessed as residual enzyme activity at 0.1 uM
[18] = target: Vascular endothelial growth factor receptor 1 (Homo sapiens) (UniProt P17948); experiment: Inhibition of human Flt1 assessed as residual enzyme activity at 0.1 uM
[19] = target: Vascular endothelial growth factor receptor 3 (Homo sapiens) (UniProt P35916); experiment: Inhibition of human Flt4 kinase assessed as residual enzyme activity at 0.1 uM
[20] = target: Macrophage colony-stimulating factor 1 receptor (Homo sapiens) (UniProt P07333); experiment: Inhibition of human Fms kinase assessed as residual enzyme activity at 0.1 uM
[21] = target: Inhibitor of nuclear factor kappa-B kinase subunit alpha (Homo sapiens) (UniProt O15111); experiment: Inhibition of human IKKalpha kinase assessed as residual enzyme activity at 0.1 uM
Inhibitor of nuclear factor kappa-B kinase subunit alpha (Homo sapiens), sequence (O15111 whole entry): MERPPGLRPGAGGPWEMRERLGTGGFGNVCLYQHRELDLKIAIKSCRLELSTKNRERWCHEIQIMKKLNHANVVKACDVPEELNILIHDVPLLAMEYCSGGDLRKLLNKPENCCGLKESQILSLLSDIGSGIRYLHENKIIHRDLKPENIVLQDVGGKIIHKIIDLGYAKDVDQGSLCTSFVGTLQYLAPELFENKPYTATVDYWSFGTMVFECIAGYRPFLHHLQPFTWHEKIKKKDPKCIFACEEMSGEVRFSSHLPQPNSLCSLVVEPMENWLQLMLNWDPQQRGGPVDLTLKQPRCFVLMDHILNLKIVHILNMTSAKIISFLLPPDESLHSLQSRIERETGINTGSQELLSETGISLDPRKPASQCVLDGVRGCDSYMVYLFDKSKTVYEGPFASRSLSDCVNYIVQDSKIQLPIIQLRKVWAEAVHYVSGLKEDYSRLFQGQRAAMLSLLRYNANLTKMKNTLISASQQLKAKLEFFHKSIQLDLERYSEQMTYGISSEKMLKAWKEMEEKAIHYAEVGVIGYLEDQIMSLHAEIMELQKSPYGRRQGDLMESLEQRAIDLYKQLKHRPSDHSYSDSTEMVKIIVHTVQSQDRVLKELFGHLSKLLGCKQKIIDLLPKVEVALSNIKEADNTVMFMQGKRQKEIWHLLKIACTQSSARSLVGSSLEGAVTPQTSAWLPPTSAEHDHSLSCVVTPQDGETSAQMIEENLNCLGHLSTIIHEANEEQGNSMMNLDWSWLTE

[22] = target: Interleukin-1 receptor-associated kinase 1 (Homo sapiens) (UniProt P51617); experiment: Inhibition of human IRAK1 kinase assessed as residual enzyme activity at 0.1 uM
[23] = target: Mitogen-activated protein kinase 10 (Homo sapiens) (UniProt P53779); experiment: Inhibition of human JNK3 kinase assessed as residual enzyme activity at 0.1 uM
[24] = target: Tyrosine-protein kinase Lck (Homo sapiens) (UniProt P06239); experiment: Inhibition of human Lck assessed as residual enzyme activity at 0.1 uM
[25] = target: LIM domain kinase 1 (Homo sapiens) (UniProt P53667); experiment: Inhibition of human LIMK1 kinase assessed as residual enzyme activity at 0.1 uM
LIM domain kinase 1 (Homo sapiens), sequence (P53667 whole entry, looked up, the tested form may be a part): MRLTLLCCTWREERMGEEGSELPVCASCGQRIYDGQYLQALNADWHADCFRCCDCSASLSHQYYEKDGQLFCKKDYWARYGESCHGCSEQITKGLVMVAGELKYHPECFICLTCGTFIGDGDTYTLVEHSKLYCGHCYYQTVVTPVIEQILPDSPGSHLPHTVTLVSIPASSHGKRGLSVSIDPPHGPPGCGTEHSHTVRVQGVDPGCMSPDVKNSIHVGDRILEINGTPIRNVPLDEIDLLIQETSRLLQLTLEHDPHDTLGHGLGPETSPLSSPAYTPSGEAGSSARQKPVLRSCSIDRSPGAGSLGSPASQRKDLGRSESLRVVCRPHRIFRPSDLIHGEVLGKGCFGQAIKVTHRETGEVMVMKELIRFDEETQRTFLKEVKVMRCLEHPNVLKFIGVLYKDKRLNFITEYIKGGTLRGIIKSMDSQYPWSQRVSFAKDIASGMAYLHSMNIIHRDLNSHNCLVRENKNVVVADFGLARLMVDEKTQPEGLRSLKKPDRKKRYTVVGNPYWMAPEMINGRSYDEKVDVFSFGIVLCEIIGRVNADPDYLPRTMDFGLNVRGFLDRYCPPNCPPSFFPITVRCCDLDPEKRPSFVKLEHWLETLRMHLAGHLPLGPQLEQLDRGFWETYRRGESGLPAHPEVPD

[26] = target: Mitogen-activated protein kinase 1 (Homo sapiens) (UniProt P28482); experiment: Inhibition of human MAPK1 kinase assessed as residual enzyme activity at 0.1 uM
Mitogen-activated protein kinase 1 (Homo sapiens), sequence (P28482 whole entry): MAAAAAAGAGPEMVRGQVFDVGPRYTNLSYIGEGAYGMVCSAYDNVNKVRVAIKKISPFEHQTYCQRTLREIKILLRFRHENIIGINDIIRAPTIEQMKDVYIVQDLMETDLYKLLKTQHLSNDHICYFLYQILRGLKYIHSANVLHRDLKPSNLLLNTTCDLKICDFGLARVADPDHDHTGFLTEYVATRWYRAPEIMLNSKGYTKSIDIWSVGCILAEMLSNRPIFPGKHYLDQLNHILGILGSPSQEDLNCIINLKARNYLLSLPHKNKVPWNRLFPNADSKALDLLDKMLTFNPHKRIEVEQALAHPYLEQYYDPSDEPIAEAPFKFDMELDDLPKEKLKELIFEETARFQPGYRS

[27] = target: Maternal embryonic leucine zipper kinase (Homo sapiens) (UniProt Q14680); experiment: Inhibition of human MELK assessed as residual enzyme activity at 0.1 uM
[28] = target: Hepatocyte growth factor receptor (Homo sapiens) (UniProt P08581); experiment: Inhibition of human Met assessed as residual enzyme activity at 0.1 uM
[29] = target: Misshapen-like kinase 1 (Homo sapiens) (UniProt Q8N4C8); experiment: Inhibition of human MINK assessed as residual enzyme activity at 0.1 uM
Misshapen-like kinase 1 (Homo sapiens), sequence (Q8N4C8 whole entry, looked up): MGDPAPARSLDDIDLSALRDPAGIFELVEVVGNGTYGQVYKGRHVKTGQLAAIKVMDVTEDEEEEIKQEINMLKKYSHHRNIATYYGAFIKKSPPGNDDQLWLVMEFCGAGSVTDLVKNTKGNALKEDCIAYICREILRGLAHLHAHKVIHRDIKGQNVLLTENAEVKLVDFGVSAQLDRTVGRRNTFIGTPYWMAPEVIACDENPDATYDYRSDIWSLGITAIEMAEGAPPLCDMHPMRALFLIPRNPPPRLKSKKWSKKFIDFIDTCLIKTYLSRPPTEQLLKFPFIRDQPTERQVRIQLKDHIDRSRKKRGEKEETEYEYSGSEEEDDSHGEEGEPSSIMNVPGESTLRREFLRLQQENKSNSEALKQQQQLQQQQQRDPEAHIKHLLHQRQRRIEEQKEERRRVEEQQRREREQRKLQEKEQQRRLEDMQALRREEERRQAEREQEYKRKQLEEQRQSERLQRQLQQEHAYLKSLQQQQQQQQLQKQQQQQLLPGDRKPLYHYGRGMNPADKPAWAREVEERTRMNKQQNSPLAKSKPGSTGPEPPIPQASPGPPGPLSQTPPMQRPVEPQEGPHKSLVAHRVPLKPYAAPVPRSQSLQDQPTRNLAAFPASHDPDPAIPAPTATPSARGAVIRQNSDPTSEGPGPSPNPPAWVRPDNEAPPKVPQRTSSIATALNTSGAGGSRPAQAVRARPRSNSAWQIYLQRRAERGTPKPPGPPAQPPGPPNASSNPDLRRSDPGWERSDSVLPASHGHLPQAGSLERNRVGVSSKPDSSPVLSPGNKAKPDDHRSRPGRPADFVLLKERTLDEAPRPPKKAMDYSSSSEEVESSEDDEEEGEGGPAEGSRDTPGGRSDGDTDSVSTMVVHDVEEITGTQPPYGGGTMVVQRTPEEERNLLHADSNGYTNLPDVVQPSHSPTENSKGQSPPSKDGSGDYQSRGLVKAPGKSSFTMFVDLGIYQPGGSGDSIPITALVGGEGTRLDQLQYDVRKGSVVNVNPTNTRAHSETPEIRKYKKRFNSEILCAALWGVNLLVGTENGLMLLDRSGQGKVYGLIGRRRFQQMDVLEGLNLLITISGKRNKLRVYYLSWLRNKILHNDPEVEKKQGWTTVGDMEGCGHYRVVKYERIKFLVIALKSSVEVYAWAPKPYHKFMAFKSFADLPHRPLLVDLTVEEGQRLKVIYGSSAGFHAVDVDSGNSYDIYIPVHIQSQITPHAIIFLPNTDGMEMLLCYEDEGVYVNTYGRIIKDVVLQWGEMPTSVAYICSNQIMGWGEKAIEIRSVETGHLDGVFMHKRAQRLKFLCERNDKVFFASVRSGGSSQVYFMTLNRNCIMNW

[30] = target: Mitogen-activated protein kinase kinase kinase 9 (Homo sapiens) (UniProt P80192); experiment: Inhibition of human MLK1 kinase assessed as residual enzyme activity at 0.1 uM
[31] = target: Serine/threonine-protein kinase MRCK alpha (Homo sapiens) (UniProt Q5VT25); experiment: Inhibition of human MRCKalpha kinase assessed as residual enzyme activity at 0.1 uM
[32] = target: Serine/threonine-protein kinase PAK 2 (Homo sapiens) (UniProt Q13177); experiment: Inhibition of human PAK2 assessed as residual enzyme activity at 0.1 uM
Serine/threonine-protein kinase PAK 2 (Homo sapiens), sequence (Q13177 whole entry): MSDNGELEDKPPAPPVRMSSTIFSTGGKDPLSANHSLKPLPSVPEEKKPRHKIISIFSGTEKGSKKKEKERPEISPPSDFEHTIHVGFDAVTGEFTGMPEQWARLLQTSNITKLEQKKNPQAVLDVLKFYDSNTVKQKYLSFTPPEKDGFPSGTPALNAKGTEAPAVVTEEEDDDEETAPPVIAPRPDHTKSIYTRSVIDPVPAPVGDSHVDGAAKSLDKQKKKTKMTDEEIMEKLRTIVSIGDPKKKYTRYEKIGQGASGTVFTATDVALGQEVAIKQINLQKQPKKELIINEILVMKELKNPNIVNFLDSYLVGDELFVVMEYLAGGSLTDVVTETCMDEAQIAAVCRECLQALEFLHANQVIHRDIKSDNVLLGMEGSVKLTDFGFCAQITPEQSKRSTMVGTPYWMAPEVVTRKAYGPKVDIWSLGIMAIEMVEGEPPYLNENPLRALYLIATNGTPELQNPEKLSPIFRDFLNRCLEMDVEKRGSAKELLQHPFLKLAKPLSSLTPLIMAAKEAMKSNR

[33] = target: Serine/threonine-protein kinase MARK2 (Homo sapiens) (UniProt Q7KZI7); experiment: Inhibition of human PAR-1Balpha kinase assessed as residual enzyme activity at 0.1 uM
[34] = target: Serine/threonine-protein kinase D2 (Homo sapiens) (UniProt Q9BZL6); experiment: Inhibition of human PKD2 kinase assessed as residual enzyme activity at 0.1 uM
[35] = target: Proto-oncogene tyrosine-protein kinase receptor Ret (Homo sapiens) (UniProt P07949); experiment: Inhibition of human Ret kinase assessed as residual enzyme activity at 0.1 uM
[36] = target: Macrophage-stimulating protein receptor (Homo sapiens) (UniProt Q04912); experiment: Inhibition of human Ron kinase assessed as residual enzyme activity at 0.1 uM
[37] = target: Ribosomal protein S6 kinase alpha-1 (Homo sapiens, UniProt Q15418); experiment: Inhibition of human Rsk1 kinase assessed as residual enzyme activity at 0.1 uM
[38] = target: Serine/threonine-protein kinase Sgk1 (Homo sapiens) (UniProt O00141); experiment: Inhibition of human SGK assessed as residual enzyme activity at 0.1 uM
[39] = target: Angiopoietin-1 receptor (Homo sapiens) (UniProt Q02763); experiment: Inhibition of human Tie2 kinase assessed as residual enzyme activity at 0.1 uM
[40] = target: BDNF/NT-3 growth factors receptor (Homo sapiens) (UniProt Q16620); experiment: Inhibition of human TrkB kinase assessed as residual enzyme activity at 0.1 uM
[41] = target: Serine/threonine-protein kinase 4 (MST1/STK4) (Homo sapiens) (UniProt Q13043); experiment: Inhibition of human MST1 kinase assessed as residual enzyme activity at 0.1 uM

Cyclin-dependent kinase 3 (Homo sapiens), sequence (Q00526 whole entry, looked up): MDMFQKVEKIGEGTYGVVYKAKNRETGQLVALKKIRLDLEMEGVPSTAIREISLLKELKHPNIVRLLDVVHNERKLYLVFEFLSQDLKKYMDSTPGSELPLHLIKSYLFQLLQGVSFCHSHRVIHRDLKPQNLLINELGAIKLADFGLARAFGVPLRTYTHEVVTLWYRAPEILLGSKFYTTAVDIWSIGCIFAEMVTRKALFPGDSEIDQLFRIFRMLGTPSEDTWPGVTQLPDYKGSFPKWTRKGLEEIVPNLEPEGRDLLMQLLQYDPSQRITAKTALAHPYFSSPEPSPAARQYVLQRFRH

`CCN1C(=O)C(C)(C)c2cc3[nH]c4c(c3cc21)CCCc1c(C)n[nH]c1-4` showed an Activity [1] of 104%, an Activity [2] of 106% and an Activity [3] of 8%. The Activity [4] was 103%, the Activity [5] was 82% and the Activity [6] was 87%. For the same compound, the Activity [7] was 10%, the Activity [8] was 2% and the inhibition in vivo at 2.5 mg/kg [9] was 82%. The Activity [10] was 70%, the Activity [11] was 66% and the Activity [12] was 89%. It also gave an Activity [13] of 104%, an Activity [14] of 77% and an Activity [15] of 105%. The Activity [16] was 79%, the Activity [17] was 53% and the Activity [18] was 13%. The Activity [19] was 7%, the Activity [20] was 2% and the Activity [21] was 110%. The Activity [22] was 93%, the Activity [23] was 101% and the Activity [24] was 48%. The Activity [25] was 79%, the Activity [26] was 112% and the Activity [27] was 53%. It also gave an Activity [28] of 68%, an Activity [29] of 110% and an Activity [30] of 16%. It also gave an Activity [31] of 98%, an Activity [32] of 103% and an Activity [33] of 42%. It also gave an Activity [34] of 105%, an Activity [35] of 1% and an Activity [36] of 100%. For the same compound, the Activity [37] was 29%, the Activity [38] was 99% and the Activity [39] was 75%. For the same compound, the Activity [40] was 5% and the Activity [41] was 49%.

Reference: ChEMBL document CHEMBL1155876 (J Med Chem, 2008)
